In patent US9605005B2, “Alkynyl alcohols and methods of use” (Genentech, Inc., priority 2013, dated 2017):

Molecular target: nuclear factor-kappa B (NF-kB)-inducing kinase (NIK) (Homo sapiens (Human), UniProt Q99558)
Assay: NIK enzyme inhibition assay (Transcreener ADP, NIK ADP-FP)
Type: biochemical
Conditions: purified NIK 0.5 nM, 10 μM ATP, fluorescence polarization; read-out: NIK ADP-FP (Ki μM)

nuclear factor-kappa B (NF-kB)-inducing kinase (NIK), sequence (Q99558 whole entry): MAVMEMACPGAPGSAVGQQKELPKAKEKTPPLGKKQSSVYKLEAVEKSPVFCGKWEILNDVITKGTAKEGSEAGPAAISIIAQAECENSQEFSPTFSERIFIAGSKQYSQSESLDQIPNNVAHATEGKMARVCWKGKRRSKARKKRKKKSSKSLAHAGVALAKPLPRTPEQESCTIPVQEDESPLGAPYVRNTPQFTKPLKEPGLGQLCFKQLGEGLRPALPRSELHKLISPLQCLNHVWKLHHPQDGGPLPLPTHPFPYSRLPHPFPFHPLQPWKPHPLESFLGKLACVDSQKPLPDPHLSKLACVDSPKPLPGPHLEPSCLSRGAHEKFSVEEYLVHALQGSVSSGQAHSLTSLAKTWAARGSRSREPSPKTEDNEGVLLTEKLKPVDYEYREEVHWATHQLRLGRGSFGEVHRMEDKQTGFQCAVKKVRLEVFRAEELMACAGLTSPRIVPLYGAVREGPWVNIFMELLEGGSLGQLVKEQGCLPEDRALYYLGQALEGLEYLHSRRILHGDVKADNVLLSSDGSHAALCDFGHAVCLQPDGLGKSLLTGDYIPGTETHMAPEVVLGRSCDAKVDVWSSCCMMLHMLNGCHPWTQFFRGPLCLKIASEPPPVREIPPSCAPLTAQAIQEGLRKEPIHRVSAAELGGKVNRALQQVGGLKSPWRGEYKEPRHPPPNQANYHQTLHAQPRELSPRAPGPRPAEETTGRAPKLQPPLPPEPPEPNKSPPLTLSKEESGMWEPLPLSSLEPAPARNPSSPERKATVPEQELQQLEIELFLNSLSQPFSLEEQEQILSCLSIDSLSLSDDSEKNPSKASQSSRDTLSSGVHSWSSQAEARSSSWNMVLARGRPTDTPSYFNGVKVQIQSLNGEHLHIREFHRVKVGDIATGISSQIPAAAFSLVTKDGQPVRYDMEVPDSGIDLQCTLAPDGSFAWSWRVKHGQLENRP

Ki [nM]	SMILES
1.27	CN1CC[C@@](O)(C#Cc2cccc(-n3nc(C(N)=O)c4cccc(F)c43)c2)C1=O [Compound 176, 7-fluoro-1-[3-[2-[(3R)-3-hydroxy-1-methyl-2-oxo-pyrrolidin-3-yl]ethynyl]phenyl] indazole-3-carboxamide]
11.1	CN1CC[C@@](O)(C#Cc2cccc(-c3nc(C(N)=O)c4ccc(C(N)=O)cn34)c2)C1=O [Compound 179, 3-[3-[2-[(3R)-3-hydroxy-1-methyl-2-oxo-pyrrolidin-3-yl]ethynyl]phenyl]imidazo [1,5-a]pyridine-1,6-dicarboxamide]
72.4	CN1CC[C@@](O)(C#Cc2ccnc(-n3nc(C(N)=O)c4c3CC(C)(C)[C@H](OCc3ccccc3)C4)c2)C1=O [Compound 8, (5R)-5-benzyloxy-1-[4-[2-[(3R)-3-hydroxy-1-methyl-2-oxo-pyrrolidin-3-yl]ethynyl]-2-pyridyl]-6,6-dimethyl-5,7-dihydro-4H-indazole-3-carboxamide]
10.2	CN1C[C@@H](O)[C@](O)(C#Cc2cccc(-n3nc(C(N)=O)c4ccccc43)c2)C1=O [Compound 127, 1-[3-[2-[(3R,4R)-3,4-dihydroxy-1-methyl-2-oxo-pyrroli-din-3-yl]ethynyl]phenyl]inda-zole-3-carboxamide]
1040	CN1CC[C@@](O)(C#Cc2cccc(-n3nc(C(N)=O)c4c3CCC[C@H]4NC(=O)C3CC3)c2)C1=O [Compound 32, (4R)-4-(cyclopropanecarbonyl-amino)-1-[3-[2-[(3R)-3-hydroxy-1-methyl-2-oxo-pyrroli-din-3-yl]ethynyl]phenyl]-4,5,6,7-tetrahydroindazole-3-carboxamide]
259	CN1CC[C@@](O)(C#Cc2cccc(-n3nc(C(N)=O)c4c3CCN(C3COC3)C4)c2)C1=O [Compound 33, 1-[3-[2-[(3R)-3-hydroxy-1-methyl-2-oxo-pyrrolidin-3-yl]ethynyl]phenyl]-5-(oxetan-3-yl)-6,7-dihydro-4H-pyra-zolo[4,3-c]pyridine-3-carbox-amide]
20.4	CN1CC[C@@](O)(C#Cc2cccc(-c3nc(C(N)=O)n4c3NCC4)c2)C1=O [Compound 87, 7-[3-[2-[(3R)-3-hydroxy-1-methyl-2-oxo-pyrrolidin-3-yl]ethynyl]phenyl]-2,3-dihy-dro-1H-imidazo[1,5-a]imida-zole-5-carboxamide]
2.33	C[C@H](O)c1ccc2c(c1)c(C(N)=O)nn2-c1cccc(C#C[C@]2(O)CCN(C)C2=O)c1 [Compound 45, 5-[(1S)-1-hydroxyethyl]-1-[3-[2-[(3R)-3-hydroxy-1-meth-yl-2-oxo-pyrrolidin-3-yl]ethynyl]phenyl]indazole-3-carboxamide]
0.053	Cc1sc(-c2cc(C#C[C@]3(O)CCN(C)C3=O)ccc2F)nc1C(N)=O [Compound 197, 2-[2-fluoro-5-[2-[(3R)-3-hydroxy-1-methyl-2-oxo-pyrrolidin-3-yl]ethynyl]phenyl]-5-methyl-thiazole-4-carboxamide]
10.2	CC(=O)N1CCc2c(c(C(N)=O)nn2-c2cccc(C#C[C@]3(O)CCN(C)C3=O)c2)C1 [Compound 19, 5-acetyl-1-[3-[2-[(3R)-3-hy-droxy-1-methyl-2-oxo-pyrroli-din-3-yl]ethynyl]phenyl]-6,7-dihydro-4H-pyrazolo[4,3-c]pyridine-3-carboxamide]
16.6	C[C@](O)(C#Cc1cccc(-n2nc(C(N)=O)c3ccccc32)c1)c1c[nH]nn1 [Compound 118, 1-[3-[(3S)-3-hydroxy-3-(1H-triazol-4-yl)but-1-ynyl]phenyl]indazole-3-carboxamide]
473	NC(=O)c1nn(-c2cccc(C#C[C@@]3(O)CCOC3=O)c2)c2ccccc12 [Compound 172, 1-[3-[2-[(3)S-3-hydroxy-2-oxo-tetrahydrofuran-3-yl]eth-ynyl]phenyl]indazole-3-carbox-amide]
45.5	CN1CC[C@@](O)(C#Cc2ccnc(-n3nc(C(N)=O)c4c3CC(C)(C)[C@@H](OCc3ccccc3)C4)c2)C1=O [Compound 7, (5S)-5-benzyloxy-1-[4-[2-[(3R)-3-hydroxy-1-methyl-2-oxo-pyrrolidin-3-yl]ethynyl]-2-pyridyl]-6,6-dimethyl-5,7-dihydro-4H-indazole-3-carboxamide]
0.24	CN1CC[C@@](O)(C#Cc2cccc(-n3nc(C(N)=O)c4[nH]c(=O)ccc43)c2)C1=O [Compound 108, 1-[3-[2-[(3R)-3-hydroxy-1-methyl-2-oxo-pyrrolidin-3-yl]ethynyl]phenyl]-5-oxo-4H-pyrazolo[4,3-b]pyridine-3-carboxamide]
10.1	CN1CC[C@@](O)(C#Cc2cccc(-n3nc(C(N)=O)c4c3CCC[C@@H]4n3cccn3)c2)C1=O [Compound 38, (4S)-1-[3-[2-[(3R)-3-hydroxy-1-methyl-2-oxo-pyrrolidin-3-yl]ethynyl]phenyl]-4-pyrazol-1-yl-4,5,6,7-tetrahydro-indazole-3-carboxamide]
46.4	CN1CC[C@@](O)(C#Cc2cccc(-n3nc(C(N)=O)c4c3CCN([S@+](C)[O-])C4)c2)C1=O [Compound 124, 1-[3-[2-[(3R)-3-hydroxy-1-methyl-2-oxo-pyrrolidin-3-yl]ethynyl]phenyl]-5-[(S)-methylsulfinyl]-6,7-dihydro-4H-pyrazolo[4,3-c]pyridine-3-carboxamide]

Continued, compound first:

SMILES	Ki [nM]
CN1CC[C@@](O)(C#Cc2ccnc(-n3nc(C(N)=O)c4c3CC3CC4C3)c2)C1=O [Compound 59, (R)-1-(4-((3-hydroxy-1-meth-yl-2-oxopyrrolidin-3-yl)eth-ynyl)pyridin-2-yl)-4,5,6,7-tetrahydro-1H-4,6-methano-indazole-3-carboxamide]	7.2
CN1CC[C@@](O)(C#Cc2cccc(-n3nc(C(N)=O)c4c3CC(F)(F)C4)c2)C1=O [Compound 199, 5,5-difluoro-1-[3-[2-[(3R)-3-hydroxy-1-methyl-2-oxo-pyrrolidin-3-yl]ethynyl]phenyl]-4,6-dihydrocyclopenta [c]pyrazole-3-carboxamide]	0.26
CN(C)C(=O)c1ccc2c(c1)c(C(N)=O)nn2-c1cccc(C#C[C@]2(O)CCN(C)C2=O)c1 [Compound 184, 1-[3-[2-[(3R)-3-hydroxy-1-methyl-2-oxo-pyrrolidin-3-yl]ethynyl]phenyl]-N5, N5-dimethyl-indazole-3,5-dicarboxamide]	103
CN1CC[C@@](O)(C#Cc2ccc(F)c(-n3nc(C(N)=O)c4c3COC4)c2)C1=O [Compound 191, 1-[2-fluoro-5-[2-[(3R)-3-hydroxy-1-methyl-2-oxo-pyrrolidin-3-yl]ethynyl]phenyl]-4,6-dihydrofuro[3,4-c] pyrazole-3-carboxamide]	1.11
CN1CC[C@@](O)(C#Cc2cccc(-n3nc(C(N)=O)c4c3CCC(=O)N4)c2)C1=O [Compound 180, 1-[3-[2-[(3R)-3-hydroxy-1-methyl-2-oxo-pyrrolidin-3-yl]ethynyl]phenyl]-5-oxo-6,7-dihydro-4H-pyrazolo [4,3-b]pyridine-3-carboxamide]	0.35
CN1CC[C@@](O)(C#Cc2ccnc(-n3nc(C(N)=O)c4c3C3CC(C4)C3)c2)C1=O [Compound 58, (R)-1-(4-((3-hydroxy-1-meth-yl-2-oxopyrrolidin-3-yl)eth-ynyl)pyridin-2-yl)-4,5,6,7-tetrahydro-1H-5,7-methano-indazole-3-carboxamide]	18.7
CN1CC[C@@](O)(C#Cc2ccnc(-n3nc(C(N)=O)c4c3CCC[C@H]4NC(=O)C3CC3)c2)C1=O [Compound 15, (4R)-4-(cyclopropanecarbo-nylamino)-1-[4-[2-[(3R)-3-hydroxy-1-methyl-2-oxo-pyrrolidin-3-yl]ethynyl]-2-pyridyl]-4,5,6,7-tetrahydroinda-zole-3-carboxamide]	382
Cc1cc([C@](C)(O)C#Cc2ccnc(-n3nc(C(N)=O)c(Cl)c3C)c2)no1 [Compound 82, 4-chloro-1-[4-[(3R)-3-hydroxy-3-(5-methylisoxazol-3-yl)but-1-ynyl]-2-pyridyl]-5-methyl-pyrazole-3-carboxamide]	99.1
N#Cc1cc2c(cn1)c(C(N)=O)nn2-c1cccc(C#C[C@]2(O)CCc3cccnc32)c1 [Compound 134, 6-cyano-1-[3-[2-[(7R)-7-hy-droxy-5,6-dihydrocyclopen-ta[b]pyridin-7-yl]ethynyl]phe-nyl]pyrazolo[4,3-c]pyridine-3-carboxamide]	1250
CN1CC[C@@](O)(C#Cc2cccc(-n3nc(C(N)=O)c4cnc(N5CC[C@H](O)C5)cc43)c2)C1=O [Compound 139, 1-[3-[2-[(3R)-3-hydroxy-1-methyl-2-oxo-pyrrolidin-3-yl]ethynyl]phenyl]-6-[(3S)-3-hydroxypyrrolidin-1-yl]pyra-zolo[4,3-c]pyridine-3-carbox-amide]	0.39
CN1CC[C@@](O)(C#Cc2cccc(-n3nc(C(N)=O)c4c3CCN(C(=O)C3CC3)C4)c2)C1=O [Compound 20, 5-(cyclopropanecarbonyl)-1-[3-[2-[(3R)-3-hydroxy-1-methyl-2-oxo-pyrrolidin-3-yl]ethynyl]phenyl]-6,7-dihydro-4H-pyrazolo[4,3-c]pyri-dine-3-carboxamide]	4.89
CC(=O)N1CC(c2cnc3c(c2)c(C(N)=O)nn3-c2cccc(C#C[C@]3(O)CCN(C)C3=O)c2)C1 [Compound 107, 5-(1-acetylazetidin-3-yl)-1-[3-[2-[(3R)-3-hydroxy-1-meth-yl-2-oxo-pyrrolidin-3-yl]ethynyl]phenyl]pyrazolo[3,4-b]pyridine-3-carboxamide]	1.82
CN1CC[C@@](O)(C#Cc2ccnc(-n3nc(C(N)=O)c4c3C[C@@H](O)CC4)c2)C1=O [Compound 62, (6S)-6-hydroxy-1-[4-[2-[(3R)-3-hydroxy-1-methyl-2-oxo-pyrrolidin-3-yl]ethynyl]-2-pyridyl]-4,5,6,7-tetrahydro-indazole-3-carboxamide]	5.47
C[C@@](O)(C#Cc1cccc(-n2nc(C(N)=O)c3ccccc32)c1)c1ncccn1 [Compound 28, 1-[3-[(3R)-3-hydroxy-3-pyri-midin-2-yl-but-1-ynyl]phe-nyl]indazole-3-carboxamide]	35.2
CN1CC[C@](O)(C#Cc2cccc(-n3nc(C(N)=O)c4c3C(=O)NC4)c2)C1=O [Compound 143, 1-[3-[2-[(3S)-3-hydroxy-1-methyl-2-oxo-pyrrolidin-3-yl]ethynyl]phenyl]-6-oxo-4,5-dihydropyrrolo[3,4-c]pyra-zole-3-carboxamide]	1.54
